How the values were obtained:
[1] = biological target: T1, α1 and β1 subunits of guanylate cyclase (sGC), expressed in Sf9 cells (Homo sapiens, UniProt Q02108+Q02153); assay: Guanylate Cyclase Assay (formation of cyclic GMP from GTP); format: biochemical; settings: for Mean activation at 100 μM: (activity at 100 μM with 1 μM SNP − activity at 100 μM)/(activity of SNP at 1 μM − basal activity of sGC); for Mean efficacy at 100 μM with 1 μM of SNP, [% of YC-1]: compound at 100 μM with 1 μM sodium nitroprusside (SNP), normalized to 100 μM YC-1 (without SNP) as 100%; for Emax at 100 µM / Mean basal efficacy at 100 μM, [% of YC-1]: compound at 100 μM without SNP, normalized to activity of 100 μM YC-1 (without SNP) as 100%; for Emax at 100 µM: read-out: Mean basal efficacy at 100 μM, [% of YC-1]
T1 construct: made in house; host or cells: Sf9 insect cells (baculovirus co-infection); high-speed supernatant used unpurified
T1 sequence (Q02108 1-690): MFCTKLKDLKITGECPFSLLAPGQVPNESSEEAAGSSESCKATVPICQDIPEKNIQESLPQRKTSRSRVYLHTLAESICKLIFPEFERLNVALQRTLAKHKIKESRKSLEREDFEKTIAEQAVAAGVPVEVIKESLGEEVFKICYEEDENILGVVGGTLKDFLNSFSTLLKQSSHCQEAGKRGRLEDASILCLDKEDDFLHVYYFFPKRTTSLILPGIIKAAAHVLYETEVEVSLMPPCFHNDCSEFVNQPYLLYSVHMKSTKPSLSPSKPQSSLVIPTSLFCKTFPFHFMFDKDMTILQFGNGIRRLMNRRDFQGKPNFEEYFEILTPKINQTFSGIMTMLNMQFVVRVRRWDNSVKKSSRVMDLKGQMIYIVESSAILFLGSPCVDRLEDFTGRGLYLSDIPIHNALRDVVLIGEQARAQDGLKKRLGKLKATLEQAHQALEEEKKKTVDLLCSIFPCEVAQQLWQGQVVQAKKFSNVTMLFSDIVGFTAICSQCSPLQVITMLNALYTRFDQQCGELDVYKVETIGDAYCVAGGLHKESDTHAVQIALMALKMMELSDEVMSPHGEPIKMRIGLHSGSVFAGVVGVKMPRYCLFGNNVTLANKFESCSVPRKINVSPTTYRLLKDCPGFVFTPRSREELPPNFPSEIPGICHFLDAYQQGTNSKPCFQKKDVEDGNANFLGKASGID
T1 sequence (Q02153 1-619): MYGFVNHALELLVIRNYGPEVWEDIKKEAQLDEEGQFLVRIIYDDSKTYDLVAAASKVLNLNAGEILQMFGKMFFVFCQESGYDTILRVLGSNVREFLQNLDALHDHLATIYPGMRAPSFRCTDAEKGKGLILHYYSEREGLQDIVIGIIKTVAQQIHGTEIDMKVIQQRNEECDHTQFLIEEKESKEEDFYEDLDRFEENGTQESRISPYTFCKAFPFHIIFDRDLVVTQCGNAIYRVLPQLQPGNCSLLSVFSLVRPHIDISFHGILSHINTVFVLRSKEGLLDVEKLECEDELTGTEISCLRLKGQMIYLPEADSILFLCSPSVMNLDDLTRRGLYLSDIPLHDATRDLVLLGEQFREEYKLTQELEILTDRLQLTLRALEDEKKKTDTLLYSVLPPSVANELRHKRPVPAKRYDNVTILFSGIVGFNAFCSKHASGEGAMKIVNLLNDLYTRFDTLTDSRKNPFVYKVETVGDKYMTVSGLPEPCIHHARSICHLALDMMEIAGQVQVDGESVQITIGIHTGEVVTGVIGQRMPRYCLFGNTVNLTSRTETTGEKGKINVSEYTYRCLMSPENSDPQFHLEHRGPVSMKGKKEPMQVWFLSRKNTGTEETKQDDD
Protocol: Sf9 cells were cultured in Sf-90011 medium supplemented with 10% (v/v) fetal calf serum at 28° C. to give a count of 6×10^5 cells/ml. The cells were then infected with a mixture of the virus stocks for the α1 and β1 subunits of guanylate cyclase at a multiplicity of infection of 0.1 pfu/cell. The cells were harvested 72 hours after infection and were pelleted by centrifugation. The resulting cell pellets were homogenized with Polytron homogenizer in 3 volumes of 20 mM Tris-HCl (pH 7.6) containing 1 mM EDTA, 5 mM dithiothreitol, 90 mM NaCl, 10% glycerol, and protease inhibitors mix (Roche Molecular Biochemicals). The homogenate was centrifuged at 50,000×g for 60 minutes and the supernatant was aliquotted and stored at −80° C.
Compounds of the present invention were dissolved in DMSO to make 100 mM and saved as stocks at −20° C. When compounds were tested, 10-fold concentrated solutions with 10% DMSO were prepared. 10 μl of 10-fold concentrated compound solutions were added to the reaction mixture total of 100 μl.
Guanylate cyclase activity was measured by the formation of cyclic GMP from GTP in a total volume of 100 μl. Guanylate cyclase-expressed Sf9 cell high-speed supernatant (Sf9 high-speed sup) was used as an enzyme source for the assay. The reaction mixture containing 0.1 μl enzyme of Sf9 high-speed sup, compound solution, 50 mM Tris-HCl (pH 7.6), 4 mM MgCl2, 0.5 mM IBMX, 15 mM creatine phosphate, 20 μg creatine phosphokinase, 0.1% BSA and 1 mM GTP were incubated at 37° C. for 15 minutes. After the reaction, 0.9 ml of 50 mM sodium acetate buffer (pH 5.8) was added followed by boiling for 3 minutes to stop the reaction. The solution was centrifuged at 3000 rpm for 15 minutes at room temperature and cyclic GMP in 20 μl of the resulting supernatant was measured according to the protocol of Amersham cyclic GMP enzymeimmunoassay system (Amersham, RPN 226).
Compounds of the present invention were tested at 100 μM with and without 1 μM of sodium nitroprusside (SNP). YC-1 was included as a standard for each assay. The data was normalized with the activity of 100 μM YC-1 (without SNP) as 100%. Mean basal efficacy, in Table 1, was expressed as a percentage of 100 μM YC-1 (without SNP).
The mean activation, in Table 1, was calculated based on the formula: (activity of compound of the present invention at 100 μM with 1 μM SNP)−(activity of compound of on at 100 μM)/(activity of SNP at 1 μM)−(basal activity of sGC).

| Compound | Mean activation at 100 μM [1] | Mean efficacy at 100 μM with 1 μM of SNP, [% of YC-1] [1] | Emax at 100 µM [1] [%] | melting point [°C] | Mean basal efficacy at 100 μM, [% of YC-1] [1] |
| --- | --- | --- | --- | --- | --- |
| OCc1cccc(Oc2nn(Cc3ccccc3)c3ccccc23)n1 [Example 2, {6-[(1-benzyl-1H-indazol-3-yl)oxy]-2-pyridinyl}methanol] | 1.8 | 20 % of YC-1 | 0 | 156 to 158 | – |
| Clc1ccc(NN=Cc2ccc(Oc3nn(Cc4ccccc4)c4ccccc34)o2)nn1 [Example 3, 5-[(1-benzyl-1H-indazol-3-yl)oxy]-2-furaldehyde (6-chloro-3-pyridazinyl)hydrazone] | 1.7 | 17 % of YC-1 | 0 | 200 to 202 | – |
| O=C(O)c1ccc(Oc2nn(Cc3ccccc3)c3ccccc23)o1 [Example 4, 5-[(1-benzyl-1H-indazol-3-yl)oxy]-2-furoic acid] | 1.5 | 26 % of YC-1 | 0 | 162 to 165 | – |
| O=C(NCC(O)c1ccccc1)c1ccccc1Oc1nn(Cc2ccccc2)c2ccccc12 (stereo not drawn) [Example 22, 2-[(1-benzyl-1H-indazol-3-yl)oxy]-N-(2-hydroxy-2-phenylethyl)benzamide] | 2.1 | 13 % of YC-1 | 2 | – | – |
| CN1CCCC1CCNC(=O)c1ccccc1Oc1nn(Cc2ccccc2)c2ccccc12 (stereo not drawn) [Example 23, 2-[(1-benzyl-1H-indazol-3-yl)oxy]-N-[2-(1-methyl-2-pyrrolidinyl)ethyl]benzamide] | 2.2 | 15 % of YC-1 | 3 | – | – |
| O=C(NCCCn1ccnc1)c1ccccc1Oc1nn(Cc2ccccc2)c2ccccc12 [Example 24, 2-[(1-benzyl-1H-indazol-3-yl)oxy]-N-[3-(1H-imidazol-1-yl)propyl]benzamide] | 1.7 | 12 % of YC-1 | 5 | – | – |
| O=C(NN1CCOCC1)c1ccccc1Oc1nn(Cc2ccccc2)c2ccccc12 [Example 25] | 1.9 | 14 % of YC-1 | – | – | 4 % of YC-1 |
| O=C(NCC1CCCCC1O)c1ccccc1Oc1nn(Cc2ccccc2)c2ccccc12 (stereo not drawn) [Example 26, 2-[(1-benzyl-1H-indazol-3-yl)oxy]-N-[(2-hydroxycyclohexyl)methyl]benzamide] | 2.0 | 12 % of YC-1 | 1 | – | – |
| C(=Cc1ccccc1)Cn1nc(OCc2ccccc2)c2ccccc21 [Example 27, 3-(benzyloxy)-1-[3-phenyl-2-propenyl]-1H-indazole] | 1.7 | 18 % of YC-1 | -2 | – | – |
| O=C(O)c1ccc(Cn2nc(OCc3ccccc3)c3ccccc32)o1 [Example 28, 5-{[3-(benzyloxy)-1H-indazol-1-yl]methyl}-2-furoic acid] | 1.9 | 27 % of YC-1 | 6 | – | – |
| OCc1ccc(Cn2nc(OCc3ccccc3)c3ccccc32)o1 [Example 29, (5-{[3-(benzyloxy)-1H-indazol-1-yl]methyl}-2-furyl)methanol] | 1.4 | 11 % of YC-1 | 1 | 80 to 82 | – |
| O=[N+]([O-])c1ccc(Oc2nn(Cc3ccccc3F)c3ncccc23)nc1 [Example 34, 1-(2-fluorobenzyl)-3-[(5-nitro-2-pyridinyl)oxy]-1H-pyrazolo[3,4-b]pyridine] | 1.0 | 7 % of YC-1 | 4 | 111 to 113 | – |
| O=[N+]([O-])c1cccnc1Oc1nn(Cc2ccccc2F)c2ncccc12 [Example 35, 1-(2-fluorobenzyl)-3-[(3-nitro-2-pyridinyl)oxy]-1H-pyrazolo[3,4-b]pyridine] | 1.9 | 28.1 % of YC-1 | 7.1 | 115 to 117 | – |
| OCc1ccc(-c2nn(Cc3ccccc3)c3ccccc23)o1 [YC-1, reference compound] | 2.7 | 224 % of YC-1 | – | – | 100 % of YC-1 |
